Test results taken from patent US20230027295A1, “FXIA INHIBITORS AND PREPARATION METHOD THEREFOR AND PHARMACEUTICAL USE THEREOF” (Shenzhen Salubris Pharmaceuticals Co., Ltd., priority 2019, published 2023).

Assays:
Human Factor XIa = Human Factor XIa (Homo sapiens, UniProt P03951); test: Inhibition of human coagulation factor XIa by absorptiometry (substrate S-2366); format: biochemical; conditions: 37° C., 20 min incubation, absorbance 405 nm; read-out: hFXIa IC50
Method: Example 50: Detection of the Biological Activity of the Compounds of the Present Invention on the Inhibition of Human Coagulation Factor XIa by Absorptiometry
Buffer: 145 mM NaCl, 5 mM KCl, 1 mg/mL PEG 8000, 30 mM HEPES, pH 7.4
(§1) 10 mM test compound dissolved in 100% DMSO was diluted with 100% DMSO to 1000, 200, 40, 8, 1.6, 0.32, 0.064, 0.0128, 0.00256, 0.00128 μM; 98 μL of FXIa enzyme solution (77.7 ng/mL) was added to each well of a 96-well plate, and 98 μL of buffer was added to the blank wells. 2 μL of compounds of different concentrations were added, and the blank and control wells were added with DMSO instead. They were mixed with a shaker, and incubated at 37° C. for 20 minutes.
Finally, 100 μL of 800 μM substrate was added to each well, and its absorbance was measured at 405 nm.

human plasma = test: Anticoagulant effect on human plasma in vitro (APTT determination); format: biochemical; conditions: for aPTT EC1.5×: concentration giving APTT of 1.5× blank control; for aPTT EC2×: concentration giving APTT of 2× blank control
Method: Example 51: Determination of the Anticoagulant Effect of the Compounds of the Present Invention on Human Plasma In Vitro
Plasma: Human blood was collected in a vacuum blood collection tube containing 3.2% sodium citrate (volume ratio 1:9), centrifuged at 3000 rpm for 10 min at room temperature, and the plasma was collected, divided into EP tubes, and stored at −80° C.
Reagents: APTT assay kit (Activated partial thromboplastin time assay kit, mindray), calcium chloride solution.
Instrument: coagulation meter (mindray, C2000-A)
The frozen human plasma in aliquots was thawed at room temperature and mixed well. 10 mM test compound dissolved in 100% DMSO was diluted with 100% DMSO to 1500, 750, 375, 187.5, 93.75, 46.88, 23.44, 11.72 μM. 98 μL of human plasma was added to a 1.5 mL EP tube, then 2 μL of compounds of different concentrations were added, and 2 μL of 100% DMSO was added for the blank group. They were incubated under a water bath at 37° C. for 10 min, and the samples were placed in the corresponding position of the coagulation analyzer to conduct APTT determination of the compounds.
Curve fitting was performed with GraphPad Prism software, and EC1.5× and EC2× values were calculated respectively, i.e., the concentrations of the compounds corresponding to the APTT of 1.5× and 2× blank control group.

hFIIa = target: T1, hFIIa (Homo sapiens, UniProt P00734); test: Selectivity to coagulation factors: hFIIa (substrate S-2238); format: biochemical
T1 construct: purchased HT5146L
Method: Example 52: Investigation of the Selectivity of the Compounds of the Present Invention to Coagulation Factors
Enzyme: hFXa: Human Factor Xa: 71nkat. hFIIa: HT5146L. hFVIIa: Human Factor VIIa: hFVIIa 4591L. kallikrein: LOT180223.
as §1, with “8, 1.6 μM.” for “8, 1.6, 0.32, 0.064, 0.0128, 0.00256, 0.00128 μM;”, “of” for “of FXIa”, “solution” for “solution (77.7 ng/mL)”, “plate, while” for “plate, and”, “added, while” for “added, and”, “20 min.” for “20 minutes.”
The concentrations of hFXa and S-2222™ were FXa (1:28) and 800 μmol/L, respectively. The concentrations of hFIIa and S-2238™ were hFIIa (0.06 U/ml) and 500 μmol/L, respectively. The concentrations of hFVIIa and S-2288™ were hFVIIa (80 nM) and 1600 μmol/L, respectively. The concentrations of kallikrein and substrate were kallikrein (20 nM) and 1600 μmol/L, respectively.
Finally, 100 μL substrate was added to each well, and its absorbance was measured at 405 nm.

CYP2B6 = target: T2, CYP2B6 (Homo sapiens, UniProt P20813); test: CYP enzyme inhibition in liver microsomes: CYP2B6; format: in vitro ADME; conditions: 0.2 mg/mL liver microsomes
T2 construct: Liver microsomes (150-donor, Corning, Cat. 452117; Lot; 38292), NADPH; tissue Corning 452117; host or cells: liver microsomes, 150-donor pool
T2 sequence (P20813 1-491): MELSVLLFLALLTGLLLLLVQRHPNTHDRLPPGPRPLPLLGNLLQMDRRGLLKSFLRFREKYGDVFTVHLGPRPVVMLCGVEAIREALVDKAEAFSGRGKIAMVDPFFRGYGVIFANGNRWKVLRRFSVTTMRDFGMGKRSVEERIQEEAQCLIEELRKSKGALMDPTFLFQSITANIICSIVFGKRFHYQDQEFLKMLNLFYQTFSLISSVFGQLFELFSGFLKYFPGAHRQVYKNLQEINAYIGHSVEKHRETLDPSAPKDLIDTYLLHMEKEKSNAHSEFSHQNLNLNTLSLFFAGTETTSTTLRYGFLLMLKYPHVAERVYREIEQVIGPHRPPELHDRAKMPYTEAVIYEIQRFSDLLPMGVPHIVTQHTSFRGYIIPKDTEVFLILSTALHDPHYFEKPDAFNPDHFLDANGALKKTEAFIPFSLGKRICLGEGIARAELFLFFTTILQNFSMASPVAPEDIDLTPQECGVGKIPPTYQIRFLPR
Method: (§2) Example 55: Investigation of CYP Enzyme Inhibition by the Compounds of the Present Invention Liver microsomes (150-donor, Corning, Cat. 452117; Lot. 38292), NADPH. A 0.2 mg/mL microsome system was prepared, each test substance and substrate were added, and the final concentration of the test substance was 50 μM. After pre-incubating for 8 min, 10 mM NADPH was added to start the reaction, and the final concentration of NADPH was 1 mM. After a period of incubation, an internal standard such as methanol was added to stop the reaction. The amount of substrate metabolites generated in each reaction well was detected. Data processing: Taking the metabolite generation in the blank well as 100%, the reduction of metabolite generation in each well of the test substance was calculated, and the inhibition rate was calculated.

CYP2C19 = target: T3, CYP2C19 (Homo sapiens, UniProt P33261); test: CYP enzyme inhibition in liver microsomes: CYP2C19; format: in vitro ADME; conditions: 0.2 mg/mL liver microsomes
T3 construct: Liver microsomes (150-donor, Corning, Cat. 452117; Lot; 38292), NADPH; tissue Corning 452117; host or cells: liver microsomes, 150-donor pool
T3 sequence (P33261 whole entry): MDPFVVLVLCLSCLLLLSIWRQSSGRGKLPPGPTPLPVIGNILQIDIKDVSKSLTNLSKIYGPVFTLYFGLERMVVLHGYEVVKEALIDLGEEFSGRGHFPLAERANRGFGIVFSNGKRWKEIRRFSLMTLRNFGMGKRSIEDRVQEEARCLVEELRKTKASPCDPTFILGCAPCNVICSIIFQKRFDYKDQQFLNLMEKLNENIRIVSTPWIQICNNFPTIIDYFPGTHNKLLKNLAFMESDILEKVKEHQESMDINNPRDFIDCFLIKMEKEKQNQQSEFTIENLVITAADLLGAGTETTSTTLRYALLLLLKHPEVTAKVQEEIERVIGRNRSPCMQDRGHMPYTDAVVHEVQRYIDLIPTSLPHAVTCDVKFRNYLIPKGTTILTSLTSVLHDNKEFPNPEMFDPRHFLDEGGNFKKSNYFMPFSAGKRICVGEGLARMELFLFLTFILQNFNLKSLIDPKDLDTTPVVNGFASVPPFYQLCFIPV
Method: as §2

CYP2D6 = target: T4, CYP2D6 (Homo sapiens, UniProt P10635); test: CYP enzyme inhibition in liver microsomes: CYP2D6; format: in vitro ADME; conditions: 0.2 mg/mL liver microsomes
T4 construct: Liver microsomes (150-donor, Corning, Cat. 452117; Lot; 38292), NADPH; tissue Corning 452117; host or cells: liver microsomes, 150-donor pool
T4 sequence (P10635 whole entry): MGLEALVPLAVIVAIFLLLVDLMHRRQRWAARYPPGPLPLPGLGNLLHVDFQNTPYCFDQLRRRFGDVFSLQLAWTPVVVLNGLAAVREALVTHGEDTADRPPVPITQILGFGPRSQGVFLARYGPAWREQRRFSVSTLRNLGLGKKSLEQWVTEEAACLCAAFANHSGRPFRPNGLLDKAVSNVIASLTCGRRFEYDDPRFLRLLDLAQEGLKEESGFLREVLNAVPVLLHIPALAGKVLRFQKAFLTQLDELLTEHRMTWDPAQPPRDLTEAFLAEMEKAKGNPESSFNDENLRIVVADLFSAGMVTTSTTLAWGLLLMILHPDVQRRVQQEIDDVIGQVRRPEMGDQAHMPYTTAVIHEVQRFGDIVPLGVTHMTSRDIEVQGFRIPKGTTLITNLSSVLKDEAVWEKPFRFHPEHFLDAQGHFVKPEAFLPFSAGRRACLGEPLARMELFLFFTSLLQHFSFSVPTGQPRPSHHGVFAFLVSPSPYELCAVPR
Method: as §2

Chain of Human Factor XIa (P03951 388-625 limits assumed): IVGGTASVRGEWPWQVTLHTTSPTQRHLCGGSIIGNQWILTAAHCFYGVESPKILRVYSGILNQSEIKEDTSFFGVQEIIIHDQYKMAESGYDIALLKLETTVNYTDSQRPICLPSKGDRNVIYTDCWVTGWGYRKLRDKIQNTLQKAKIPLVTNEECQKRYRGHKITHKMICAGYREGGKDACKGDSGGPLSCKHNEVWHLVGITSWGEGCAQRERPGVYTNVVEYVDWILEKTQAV
Chain of Human Factor XIa (P03951 19-387 partner limits assumed): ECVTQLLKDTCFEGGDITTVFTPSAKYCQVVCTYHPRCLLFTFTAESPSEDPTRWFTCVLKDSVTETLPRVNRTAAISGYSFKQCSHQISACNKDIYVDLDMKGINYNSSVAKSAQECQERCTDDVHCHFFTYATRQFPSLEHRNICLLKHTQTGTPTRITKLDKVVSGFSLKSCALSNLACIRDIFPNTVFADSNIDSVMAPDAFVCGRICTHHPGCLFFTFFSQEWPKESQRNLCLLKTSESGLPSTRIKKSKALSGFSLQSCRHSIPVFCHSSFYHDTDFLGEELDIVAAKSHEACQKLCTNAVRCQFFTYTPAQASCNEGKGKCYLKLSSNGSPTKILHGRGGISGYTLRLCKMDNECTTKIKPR

IC50 (Human Factor XIa) [µM] | IC50 (hFIIa) [µM] | IC50 (CYP2B6) [µM] | IC50 (CYP2C19) [µM] | IC50 (CYP2D6) [µM] | SMILES | aPTT EC1.5× (human plasma) [µM] | aPTT EC2× (human plasma) [µM]
0.00761 | > 100 | > 50 | > 50 | > 50 | COc1nn([C@@H](Cc2ccccc2)C(=O)Nc2ccc(C(=O)O)cc2)c(=O)cc1-c1cc(Cl)ccc1C(C)=O [Example 19, (S)-4-(2-(4-(2-acetyl-5-chlorophenyl)-3-methoxy-6-oxopyridazin-1(6H)-yl)-3-phenylpropanamido)benzoic acid] | 0.641 | 2.817
0.00165 | > 100 | > 50 | > 50 | > 50 | CCC(=O)c1ccc(Cl)cc1-c1cc(=O)n([C@@H](Cc2ccccc2)C(=O)Nc2ccc(C(=O)O)cc2)nc1OC [Example 32] | 0.483 | 1.319
